The source of these data is patent US9226928B2, “Spirocyclic isoxazoline parasiticidal combinations” (Zoetis Services LLC, priority 2012, dated 2016).

Where two headings read alike, the source gives them in different places.

Data set [1] has as its system Haemonchus contortus L3 susceptible strain. Kind of data set: In vitro motility assay, H. contortus L3 susceptible strain. The class given is cell-based.
Data set [2] relates to tick (O. turicata, Zoetis strain). Description: In-vitro tick feeding assay. The class given is cell-based, Ornithodoros turicata. As to conditions: for MED (lowest dose to cause paralysis ≧50%): at 24, 28, and 72 hours post feeding.
Data set [3] deals with C. felis fleas. Kind of data set: Efficacy against fleas in dogs. The note with it: all time points (Days 1-35); same groups.
Description: Each dog was infested with approximately 100 unfed viable adult C. felis fleas on Days −1, 6, 13, 20, 27, and 34. Efficacy was assessed by comb counts of live fleas on Days 1, 7, 14, 21, 28, and 35. Efficacy was determined as the % reduction in geometric mean live flea counts versus placebo.
A short description of data set [4]: Combination pharmacokinetics in fed dogs. The note with it: dog, in vivo, sampling to 28 days.
For data set [5], the system named is Dirofilaria immitis microfilariae (MF), Michigan strain. Kind of data set: In vitro motility assay, D. immitis microfilariae.
Description: Antiparasitic compounds were dissolved in DMSO and were spotted into the well of a 384 well microtiter plate. Nematodes in a buffered solution were added to the plates and motility measured at 96 hours for the H. contortus strains and 72 hours for D. immitis. […] MED was subjective based on visual assessment using light microscopy and was the lowest dose to cause a significant decrease in motility. Concentrations at ½ log below the MED were used alone and in combination and were read on the LemnaTec Scanalyzer to provide a quantitative percent motility compared to the negative control.
Material and method for the Dirofilaria immitis in vitro assay: Dirofilaria immitis MF were purified from microfilaremic canine blood by erythrocyte lysis and filtration and maintained in a cell culture media fortified with fetal bovine serum and antibiotics. […] The motility assessment was performed after 72 hours of incubation at 37° C. and 5% CO2 on a LemnaTec Scanalyzer which determined motility of the MF by image analysis.
In data set [6] the test system is D. immitis (L3 inoculation, adult worm recovery). Description: Prevention of heartworm disease in dogs. The note with it: in vivo, po.
The test system of data set [7] is flea (C. felis). Kind of data set: In-vitro flea feeding assay. The class given is cell-based, Ctenocephalides felis. The note with it: for lowest MED alone (lowest dose to cause mortality ≧50%) / control MED dose levels alone (triple combination assay): compound alone; for lowest MED alone (lowest dose to cause mortality ≧50%): 24 hours blood feeding; for control MED dose levels alone (triple combination assay): controls of the triple combination assay.

Where [8] appears, read: minimum efficacious dose, visual motility assessment, 96 hours.
The mark [9] stands for this setting: vs untreated control, 96 hours, LemnaTec, moxidectin 0.1 μM, pyrantel 10 μM, Compound A 100 μM, alone or combined.
Where [10] appears, read: minimum efficacious dose, visual motility assessment, 72 hours.
The mark [11] stands for this setting: vs untreated control, 72 hours, LemnaTec, moxidectin 3.3 μM, pyrantel 33 μM, Compound A 10 μM, alone or combined (triple row prints 100 μM Compound A).

As for `CS(=O)(=O)CC(=O)N1CC2(C1)OCc1cc(C3=NO[C@@](c4cc(Cl)c(F)c(Cl)c4)(C(F)(F)F)C3)ccc12` [Compound A, (S)-1-(5′-(5-(3,5-dichloro-4-fluorophenyl)-5-(trifluoromethyl)-4,5-dihydroisoxazol-3-yl)-3′H-spiro[azetidine-3,1′-isobenzofuran]-1-yl)-2-(methylsulfonyl)ethanone], in data set [1], the “% Motility” value was 76.0% and the “H. contortus L3 susceptible MED” value was over 100 µM. Further, the “MED (lowest dose to cause paralysis ≧50%)” value in data set [2] came out at 0.01 µg/mL. In data set [3], the “Percentage reductions in geometric and arithmetic mean live flea counts compared with placebo” value is 100%. In data set [4] (dosed alone: Compound A 2 mg/kg, moxidectin 0.25 μg/kg, pyrantel pamoate 5 mg/kg), the AUC (as a rule, concentration integrated over time) worked out at 202 µg·h/mL. The area under the curve (AUC) in data set [4] (the three compounds dosed simultaneously) is 206 µg·h/mL. Moreover, in data set [5], the “% Motility” value is 50.9% and the “D. immitis MED” value was 33 µM. Besides, the “geometric mean adult D. immitis worm count” value in data set [6] is recorded as 30.3 worms recovered from each dog. For the same compound, in data set [7], the “lowest MED alone (lowest dose to cause mortality ≧50%)” value is on record as 0.0001 mM and the “control MED dose levels alone (triple combination assay)” value (shortened to “control MED dose levels alone”) was determined as 0.3 mM.

Consider `CO/N=C1\C[C@]2(C[C@@H]3C[C@@H](C/C=C(\C)C[C@@H](C)/C=C/C=C4\CO[C@@H]5[C@H](O)C(C)=C[C@@H](C(=O)O3)[C@]45O)O2)O[C@H](/C(C)=C/C(C)C)[C@H]1C` [Moxidectin, moxidectin], for which, in data set [1] (setting [8]), the “H. contortus L3 susceptible MED” value amounted to 0.3 µM. The “% Motility” value in data set [1] (setting [9]) is 95.0%. In data set [2], the “MED (lowest dose to cause paralysis ≧50%)” value is 0.03 µg/mL. In addition, the “D. immitis MED” value in data set [5] (setting [10]) is 10 µM. In addition, the “% Motility” value in data set [5] (setting [11]) is 62.0%. Further, in data set [7], the “lowest MED alone (lowest dose to cause mortality ≧50%)” value came to 0.01 mM and the “control MED dose levels alone” value is listed as 10 mM.

Regarding `CN1CCCN=C1/C=C/c1cccs1` [Pyrantel, pyrantel pamoate], the “H. contortus L3 susceptible MED” value in data set [1] (setting [8]) came to 33 µM. The “% Motility” value was determined as 95.6% in data set [1] (setting [9]) and 77.8% in data set [5] (setting [11]). Also, the effect on ticks entry in data set [2] (at a rate of 3 or 30 ug/mL) is recorded as “no effect”. Also, the “D. immitis MED” value in data set [5] (setting [10]) was 100 µM. Further, in data set [7], the “control MED dose levels alone” value is over 300 mM. For the same compound, in data set [7] (highest dose tested (300 mM)), the effect on fleas result is on record as “no effect”.
